In US12539292B2, “BRM targeting compounds and associated methods of use” (Arvinas Operations, Inc., priority 2018, dated 2026):
Where two headings read alike, the source gives them in different places.

Molecular target: T1, BRM (Homo sapiens, UniProt P51531)
T1 construct: In-Cell Western Screen of BRM Degradation in SW1573 Cells; endogenous in cells; host or cells: SW1573
Assay: In-cell Western screen of BRM degradation in SW1573 cells (Dmax and DC50)
Assay type: cell-based
Details: BRM degradation, SW1573 cells, Table 2D; for Dmax: read-out: **Dmax (%) (% degraded)
Summary of the method: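 BRM levels were read by LI-COR in-cell Western after two-channel (800/680 nm) immunostaining of fixed, Triton-permeabilised SW1573 cells.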

T1 sequence (P51531 whole entry): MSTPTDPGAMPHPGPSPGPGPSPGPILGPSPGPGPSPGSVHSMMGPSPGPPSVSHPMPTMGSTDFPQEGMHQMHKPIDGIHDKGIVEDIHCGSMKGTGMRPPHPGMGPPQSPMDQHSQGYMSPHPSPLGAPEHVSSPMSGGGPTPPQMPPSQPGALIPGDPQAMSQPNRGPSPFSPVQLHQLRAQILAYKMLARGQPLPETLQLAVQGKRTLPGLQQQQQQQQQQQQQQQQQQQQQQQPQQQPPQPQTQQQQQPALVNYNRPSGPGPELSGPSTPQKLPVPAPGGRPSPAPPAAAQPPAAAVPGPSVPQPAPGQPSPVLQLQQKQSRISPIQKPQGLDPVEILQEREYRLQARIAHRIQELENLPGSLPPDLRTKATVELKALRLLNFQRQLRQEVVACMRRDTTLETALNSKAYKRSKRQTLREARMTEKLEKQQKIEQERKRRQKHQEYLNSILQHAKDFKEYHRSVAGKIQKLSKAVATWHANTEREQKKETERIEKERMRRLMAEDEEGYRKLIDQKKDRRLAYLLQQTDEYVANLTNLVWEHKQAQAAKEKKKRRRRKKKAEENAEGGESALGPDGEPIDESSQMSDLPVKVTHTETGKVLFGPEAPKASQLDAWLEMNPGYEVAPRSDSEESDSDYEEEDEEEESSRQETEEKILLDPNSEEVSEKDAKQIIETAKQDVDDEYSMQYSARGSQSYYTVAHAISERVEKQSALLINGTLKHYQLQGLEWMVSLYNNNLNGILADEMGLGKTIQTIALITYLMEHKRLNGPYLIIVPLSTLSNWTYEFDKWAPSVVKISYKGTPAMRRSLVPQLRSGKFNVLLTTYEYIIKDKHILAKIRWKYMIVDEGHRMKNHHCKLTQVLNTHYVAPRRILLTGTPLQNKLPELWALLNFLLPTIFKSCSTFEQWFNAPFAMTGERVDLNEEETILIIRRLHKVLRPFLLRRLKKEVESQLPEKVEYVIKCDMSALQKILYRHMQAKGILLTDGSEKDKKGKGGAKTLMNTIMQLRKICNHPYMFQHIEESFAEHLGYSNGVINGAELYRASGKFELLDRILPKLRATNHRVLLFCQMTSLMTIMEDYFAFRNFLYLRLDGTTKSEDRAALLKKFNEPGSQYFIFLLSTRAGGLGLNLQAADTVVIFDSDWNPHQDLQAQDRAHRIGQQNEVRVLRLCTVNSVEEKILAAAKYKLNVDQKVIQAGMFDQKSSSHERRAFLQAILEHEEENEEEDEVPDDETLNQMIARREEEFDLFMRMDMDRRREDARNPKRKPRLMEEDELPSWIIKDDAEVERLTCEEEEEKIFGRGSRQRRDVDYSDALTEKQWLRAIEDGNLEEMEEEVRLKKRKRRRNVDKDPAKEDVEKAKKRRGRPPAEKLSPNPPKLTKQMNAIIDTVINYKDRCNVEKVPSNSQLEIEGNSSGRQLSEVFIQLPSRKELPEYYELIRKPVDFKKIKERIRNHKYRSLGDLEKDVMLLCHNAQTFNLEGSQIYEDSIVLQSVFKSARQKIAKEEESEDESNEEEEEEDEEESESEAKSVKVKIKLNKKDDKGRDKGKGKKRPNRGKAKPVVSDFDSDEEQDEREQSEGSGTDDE

Row | Structure (SMILES) | Dmax [%] | DC50 (read-out: *DC50) [nM] | DC50 [nM] | **Dmax (%) (% degraded)
1 | Cc1ncsc1-c1ccc([C@H](C)NC(=O)[C@@H]2C[C@@H](O)CN2C(=O)[C@@H](c2cc(N3CCC(CN4CCC(COc5cc(N6C7CCC6CN(c6cc(-c8ccccc8O)nnc6N)C7)ccn5)CC4)CC3)no2)C(C)C)cc1 [compound 603, (2S,4R)-1-((2R)-2-(3-(4-((4-(((4-(3-(3-amino-6-(2-hydroxyphenyl)pyridazin-4-yl)-3,8-diazabicyclo[3.2.1]octan-8-yl)pyridin-2-yl)oxy)methyl)piperidin-1-yl)methyl)piperidin-1-yl)isoxazol-5-yl)-3-methylbutanoyl)-4-hydroxy-N-((S)-1-(4-(4-methylthiazol-5-yl)phenyl)ethyl)pyrrolidine-2-carboxamide] | > 75 | < 2.5 |  | 
2 | Cc1ncsc1-c1ccc([C@H](C)NC(=O)[C@@H]2C[C@@H](O)CN2C(=O)[C@@H](c2cc(N3CCC(CN4CCC(CCOc5cc(N6C7CCC6CN(c6cc(-c8ccccc8O)nnc6N)C7)ccn5)CC4)CC3)no2)C(C)C)cc1 [compound 604, (2S,4R)-1-((2R)-2-(3-(4-((4-(2-((4-(3-(3-amino-6-(2-hydroxyphenyl)pyridazin-4-yl)-3,8-diazabicyclo[3.2.1]octan-8-yl)pyridin-2-yl)oxy)ethyl)piperidin-1-yl)methyl)piperidin-1-yl)isoxazol-5-yl)-3-methylbutanoyl)-4-hydroxy-N-((S)-1-(4-(4-methylthiazol-5-yl)phenyl)ethyl)pyrrolidine-2-carboxamide] | > 75 | < 2.5 |  | 
3 | Cc1ncsc1-c1ccc([C@H](C)NC(=O)[C@@H]2C[C@@H](O)CN2C(=O)[C@@H](c2cc(N3CCC(CN4CCC(O[C@H]5C[C@H](Oc6cc(N7C8CCC7CN(c7cc(-c9ccccc9)nnc7N)C8)ccn6)C5)CC4)CC3)no2)C(C)C)cc1 [compound 605, (2S,4R)-1-((2R)-2-(3-(4-((4-((1r,3r)-3-((4-(3-(3-amino-6-phenylpyridazin-4-yl)-3,8-diazabicyclo[3.2.1]octan-8-yl)pyridin-2-yl)oxy)cyclobutoxy)piperidin-1-yl)methyl)piperidin-1-yl)isoxazol-5-yl)-3-methylbutanoyl)-4-hydroxy-N-((S)-1-(4-(4-methylthiazol-5-yl)phenyl)ethyl)pyrrolidine-2-carboxamide] |  |  | > 30 | 
4 | Cc1nccn1-c1ccc([C@H](C)NC(=O)[C@@H]2C[C@@H](O)CN2C(=O)[C@@H](c2cc(N3CCC(CN4CCC(O[C@H]5C[C@H](Oc6cc(N7C8CCC7CN(c7cc(-c9ccccc9O)nnc7N)C8)ccn6)C5)CC4)CC3)no2)C(C)C)cc1 [compound 606, (2S,4R)-1-((2S)-2-(3-(4-((4-((1r,3r)-3-((4-(3-(3-amino-6-(2-hydroxyphenyl)pyridazin-4-yl)-3,8-diazabicyclo[3.2.1]octan-8-yl)pyridin-2-yl)oxy)cyclobutoxy)piperidin-1-yl)methyl)piperidin-1-yl)isoxazol-5-yl)-3-methylbutanoyl)-4-hydroxy-N-((S)-1-(4-(2-methyl-1H-imidazol-1-yl)phenyl)ethyl)pyrrolidine-2-carboxamide] | > 75 | 10 to 30 |  | 
5 | Cc1nccn1-c1ccc([C@H](C)NC(=O)[C@@H]2C[C@@H](O)CN2C(=O)C(c2cc(N3CCC(CN4CCC(O[C@H]5C[C@H](Oc6cc(N7C8CCC7CN(c7cc(-c9ccccc9O)nnc7N)C8)ccn6)C5)CC4)CC3)no2)C(C)C)cc1 (stereo partly drawn) [compound 607, (2S,4R)-1-((2R)-2-(3-(4-((4-((1r,3r)-3-((4-(3-(3-amino-6-(2-hydroxyphenyl)pyridazin-4-yl)-3,8-diazabicyclo[3.2.1]octan-8-yl)pyridin-2-yl)oxy)cyclobutoxy)piperidin-1-yl)methyl)piperidin-1-yl)isoxazol-5-yl)-3-methylbutanoyl)-4-hydroxy-N-((S)-1-(4-(2-methyl-1H-imidazol-1-yl)phenyl)ethyl)pyrrolidine-2-carboxamide] | > 75 | < 2.5 |  | 
6 | Cc1ncsc1-c1ccc([C@H](C)NC(=O)[C@@H]2C[C@@H](O)CN2C(=O)[C@@H](c2cc(N3CCC(CN4CCN(CC5CC(Oc6cc(N7C8CC[C@@H]7CN(c7cc(-c9ccccc9O)nnc7N)C8)ccn6)C5)CC4)CC3)no2)C(C)C)cc1 (stereo partly drawn) [compound 608, (2S,4R)-1-((2R)-2-(3-(4-((4-(((1r,3r)-3-((4-(3-(3-amino-6-(2-hydroxyphenyl)pyridazin-4-yl)-3,8-diazabicyclo[3.2.1]octan-8-yl)pyridin-2-yl)oxy)cyclobutyl)methyl)piperazin-1-yl)methyl)piperidin-1-yl)isoxazol-5-yl)-3-methylbutanoyl)-4-hydroxy-N-((S)-1-(4-(4-methylthiazol-5-yl)phenyl)ethyl)pyrrolidine-2-carboxamide] |  | < 2.5 |  | A (A > 75)
7 | Cc1ncsc1-c1ccc([C@H](C)NC(=O)[C@@H]2C[C@@H](O)CN2C(=O)[C@H](c2cc(N3CCC(CN4CCC(O[C@H]5C[C@H](CN6CCOC7(CCN(c8cc(-c9ccccc9O)nnc8N)CC7)C6)C5)CC4)CC3)no2)C(C)C)cc1 [compound 609, (2S,4R)-1-((S)-2-(3-(4-((4-((1r,3r)-3-((9-(3-amino-6-(2-hydroxyphenyl)pyridazin-4-yl)-1-oxa-4,9-diazaspiro[5.5]undecan-4-yl)methyl)cyclobutoxy)piperidin-1-yl)methyl)piperidin-1-yl)isoxazol-5-yl)-3-methylbutanoyl)-4-hydroxy-N-((S)-1-(4-(4-methylthiazol-5-yl)phenyl)ethyl)pyrrolidine-2-carboxamide] |  | > 30 |  | 
8 | Cc1ncsc1-c1ccc([C@H](C)NC(=O)[C@@H]2C[C@@H](O)CN2C(=O)C(c2cc(N3CCC(CN4CCC(O[C@H]5C[C@H](CN6CCOC7(CCN(c8cc(-c9ccccc9O)nnc8N)CC7)C6)C5)CC4)CC3)no2)C(C)C)cc1 (stereo partly drawn) [compound 610, (2S,4R)-1-((R)-2-(3-(4-((4-((1r,3r)-3-((9-(3-amino-6-(2-hydroxyphenyl)pyridazin-4-yl)-1-oxa-4,9-diazaspiro[5.5]undecan-4-yl)methyl)cyclobutoxy)piperidin-1-yl)methyl)piperidin-1-yl)isoxazol-5-yl)-3-methylbutanoyl)-4-hydroxy-N-((S)-1-(4-(4-methylthiazol-5-yl)phenyl)ethyl)pyrrolidine-2-carboxamide] | > 75 | < 2.5 |  | 
9 | Cc1ncsc1-c1ccc([C@@H](NC(=O)[C@@H]2C[C@@H](O)CN2C(=O)[C@H](c2cc(N3CCC(CN4CCC(O[C@H]5C[C@H](Oc6cc(N7C8CCC7CN(c7cc(-c9ccccc9O)nnc7N)C8)ccn6)C5)CC4)CC3)no2)C(C)C)C(=O)N(C)C2CCC2)cc1 [compound 611, (2S,4R)-1-((2S)-2-(3-(4-((4-((1r,3r)-3-((4-(3-(3-amino-6-(2-hydroxyphenyl)pyridazin-4-yl)-3,8-diazabicyclo[3.2.1]octan-8-yl)pyridin-2-yl)oxy)cyclobutoxy)piperidin-1-yl)methyl)piperidin-1-yl)isoxazol-5-yl)-3-methylbutanoyl)-N-((R)-2-(cyclobutyl(methyl)amino)-1-(4-(4-methylthiazol-5-yl)phenyl)-2-oxoethyl)-4-hydroxypyrrolidine-2-carboxamide] |  | > 30 |  | 
10 | Cc1ncsc1-c1ccc([C@@H](NC(=O)[C@@H]2C[C@@H](O)CN2C(=O)[C@H](c2cc(N3CCC(CN4CCC(O[C@H]5C[C@H](Oc6cc(N7C8CCC7CN(c7cc(-c9ccccc9O)nnc7N)C8)ccn6)C5)CC4)CC3)no2)C(C)C)C(=O)N(C)C2CCC2)cc1 [compound 612, (2S,4R)-1-((2R)-2-(3-(4-((4-((1r,3r)-3-((4-(3-(3-amino-6-(2-hydroxyphenyl)pyridazin-4-yl)-3,8-diazabicyclo[3.2.1]octan-8-yl)pyridin-2-yl)oxy)cyclobutoxy)piperidin-1-yl)methyl)piperidin-1-yl)isoxazol-5-yl)-3-methylbutanoyl)-N-((R)-2-(cyclobutyl(methyl)amino)-1-(4-(4-methylthiazol-5-yl)phenyl)-2-oxoethyl)-4-hydroxypyrrolidine-2-carboxamide] | > 75 | < 2.5 |  | 
11 | Cc1ncsc1-c1ccc([C@H](C)NC(=O)[C@@H]2C[C@@H](O)CN2C(=O)[C@H](c2cc(OCCCOc3cc(N4C5CCC4CN(c4cc(-c6ccccc6O)nnc4N)C5)ccn3)no2)C(C)C)cc1 [compound 613, (2S,4R)-1-((2S)-2-(3-(3-((4-(3-(3-amino-6-(2-hydroxyphenyl)pyridazin-4-yl)-3,8-diazabicyclo[3.2.1]octan-8-yl)pyridin-2-yl)oxy)propoxy)isoxazol-5-yl)-3-methylbutanoyl)-4-hydroxy-N-((S)-1-(4-(4-methylthiazol-5-yl)phenyl)ethyl)pyrrolidine-2-carboxamide] |  | > 30 |  | 
12 | Cc1ncsc1-c1ccc([C@H](C)NC(=O)[C@@H]2C[C@@H](O)CN2C(=O)[C@@H](c2cc(OCCCOc3cc(N4C5CCC4CN(c4cc(-c6ccccc6O)nnc4N)C5)ccn3)no2)C(C)C)cc1 [compound 614, (2S,4R)-1-((2R)-2-(3-(3-((4-(3-(3-amino-6-(2-hydroxyphenyl)pyridazin-4-yl)-3,8-diazabicyclo[3.2.1]octan-8-yl)pyridin-2-yl)oxy)propoxy)isoxazol-5-y1)-3-methylbutanoyl)-4-hydroxy-N-((S)-1-(4-(4-methylthiazol-5-yl)phenyl)ethyl)pyrrolidine-2-carboxamide] | > 75 | < 2.5 |  | 
13 | Cc1ncsc1-c1ccc([C@H](C)NC(=O)[C@@H]2C[C@@H](O)CN2C(=O)[C@H](c2cc(N3CCC(OC4CCN([C@H]5C[C@H](CN6CCOC7(CCN(c8cc(-c9ccccc9O)nnc8N)CC7)C6)C5)CC4)CC3)no2)C(C)C)cc1 [compound 615, (2S,4R)-1-((S)-2-(3-(4-((1-((1r,3S)-3-((9-(3-amino-6-(2-hydroxyphenyl)pyridazin-4-yl)-1-oxa-4,9-diazaspiro[5.5]undecan-4-yl)methyl)cyclobutyl)piperidin-4-yl)oxy)piperidin-1-yl)isoxazol-5-yl)-3-methylbutanoyl)-4-hydroxy-N-((S)-1-(4-(4-methylthiazol-5-yl)phenyl)ethyl)pyrrolidine-2-carboxamide] |  | > 30 |  | 
